In brackets after ≈: the same amount, converted by molar mass. Where two headings read alike, the source gives them in different places.
Experiments:
[1] = CHI Log D procedure; assay type: physicochemical; details: pH 7.4, CHI Log D
[2] = biological target: T1, beta-catenin/TCF4 engagement (Homo sapiens, UniProt P35222); assay: Nano-BRET target engagement assay (B-cat-Halo & TCF4-Luc in HEK293 cells); assay type: cell-based; details: for inhibition at 10 µM: HEK293, 10 uM, read-out: NanoBRET % inh @ 10 uM
T1 construct: expressed in transfected cells; host or cells: HEK293
T1 sequence (P35222 1-781): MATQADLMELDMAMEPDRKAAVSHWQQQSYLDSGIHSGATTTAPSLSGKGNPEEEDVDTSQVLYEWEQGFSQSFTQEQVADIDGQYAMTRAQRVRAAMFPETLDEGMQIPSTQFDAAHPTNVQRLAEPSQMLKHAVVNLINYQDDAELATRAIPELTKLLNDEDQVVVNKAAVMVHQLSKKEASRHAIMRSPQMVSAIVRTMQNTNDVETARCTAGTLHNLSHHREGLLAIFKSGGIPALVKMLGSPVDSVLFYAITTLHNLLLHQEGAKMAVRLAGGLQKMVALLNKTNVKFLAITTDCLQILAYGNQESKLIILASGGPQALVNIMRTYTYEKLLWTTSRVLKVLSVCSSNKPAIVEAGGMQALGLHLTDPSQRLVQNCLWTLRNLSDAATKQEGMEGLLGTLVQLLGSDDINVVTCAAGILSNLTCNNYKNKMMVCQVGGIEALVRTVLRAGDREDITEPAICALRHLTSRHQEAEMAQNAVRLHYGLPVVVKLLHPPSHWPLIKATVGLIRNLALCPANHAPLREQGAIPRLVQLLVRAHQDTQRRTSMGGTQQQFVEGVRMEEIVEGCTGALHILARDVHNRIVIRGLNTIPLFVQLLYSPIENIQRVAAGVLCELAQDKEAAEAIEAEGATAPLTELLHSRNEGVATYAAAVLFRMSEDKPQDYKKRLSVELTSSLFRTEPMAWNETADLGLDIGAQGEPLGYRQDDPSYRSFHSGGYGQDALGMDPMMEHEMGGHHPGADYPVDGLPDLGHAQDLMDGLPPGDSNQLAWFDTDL

[3] = Solubility in PBS; assay type: physicochemical
How it was run: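 HPLC quantitation of peptide remaining in the PBS supernatant after ultracentrifugation, referenced to a 50 μM solution in DMSO.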

[4] = biological target: T2, full-length beta-Catenin (Uniprot ID P35222) (Homo sapiens, UniProt P35222); assay: Fluorescence polarization IC50 (beta-catenin / 5FAM-TCF4 10-53 competition); assay type: binding; details: read-out: beta-Catenin FP IC50
T2 construct: 10 nM full-length beta-Catenin (Uniprot ID P35222)
T2 sequence (P35222 1-781): T1 sequence (P35222 1-781)

SMILES: CC(=O)N1CCC[C@]12CC=CCCCC1(CCCC=CCCCOC(=O)N3CC[C@@](C(=O)N[C@@H](Cc4ccsc4)C(=O)N[C@@H](Cc4csc5ccccc45)C(=O)N[C@@H](CCC(N)=O)C(N)=O)(C3)NC(=O)[C@H](CCCNC(N)=O)NC(=O)[C@H](Cc3ccccc3)NC(=O)[C@H](C)NC(=O)[C@H](C)NC(=O)[C@H](CC(=O)O)NC(=O)[C@H](CC(=O)O)NC1=O)NC(=O)[C@H](CC(C)(C)C)NC(=O)[C@H](CC(=O)O)NC2=O (stereo partly drawn) [I-805, Ac-PL3-Asp-Npg-B5-Asp-Asp-Ala-Ala-Phe-Cit-PyrS2-3Thi-BztA-Gln-NH2]
- chromatographic logD [1]: 1.98
- IC50 ([2]; read-out: NanoBRET Abs IC50): 18500 nM
- Solubility [3]: 50 µM (≈ 98.1 µg/mL)
- IC50 [4]: 5 nM

SMILES: CC(=O)N1CCC[C@]12CC=CCCCC1(CCCC=CCCCOC(=O)N3CC[C@@](C(=O)N[C@@H](Cc4ccsc4)C(=O)N[C@@H](Cc4csc5ccccc45)C(=O)N[C@@H](Cc4c[nH]cn4)C(N)=O)(C3)NC(=O)[C@H](CCCNC(N)=O)NC(=O)[C@H](Cc3ccccc3)NC(=O)[C@H](C)NC(=O)[C@H](C)NC(=O)[C@H](CC(=O)O)NC(=O)[C@H](CC(=O)O)NC1=O)NC(=O)[C@H](CC(C)(C)C)NC(=O)[C@H](CC(=O)O)NC2=O (stereo partly drawn) [I-806, Ac-PL3-Asp-Npg-B5-Asp-Asp-Ala-Ala-Phe-Cit-PyrS2-3Thi-BztA-His-NH2]
- chromatographic logD [1]: 2.04
- IC50 ([2]; read-out: NanoBRET Abs IC50): 21600 nM
- Solubility ([3]; Solubility (uM)): 37 µM (≈ 72.9 µg/mL)
- IC50 [4]: 5 nM

SMILES: CC(=O)N1CCC[C@]12CC=CCCCC1(CCCC=CCCCOC(=O)N3CC[C@@](C(=O)N[C@@H](Cc4ccsc4)C(=O)N[C@@H](Cc4csc5ccccc45)C(=O)N[C@@H](Cc4c[nH]cn4)C(N)=O)(C3)NC(=O)[C@H](Cc3ccccc3)NC(=O)[C@H](Cc3ccccc3)NC(=O)[C@H](C)NC(=O)[C@H](C)NC(=O)[C@H](CC(=O)O)NC(=O)[C@H](CC(=O)O)NC1=O)NC(=O)[C@H](CC(C)(C)C)NC(=O)[C@H](CC(=O)O)NC2=O (stereo partly drawn) [I-808, Ac-PL3-Asp-Npg-B5-Asp-Asp-Ala-Ala-Phe-Phe-PyrS2-3Thi-BztA-His-NH2]
- chromatographic logD [1]: 2.34
- IC50 ([2]; read-out: NanoBRET Abs IC50): 4400 nM
- Solubility [3]: 10 µM (≈ 19.6 µg/mL)
- IC50 [4]: 5 nM

SMILES: CC(=O)N1CCC[C@]12CC=CCCCC1(CCCC=CCCCOC(=O)N3CC[C@@](C(=O)N[C@@H](Cc4ccsc4)C(=O)N[C@@H](Cc4csc5ccccc45)C(=O)N[C@@H](Cc4c[nH]cn4)C(N)=O)(C3)NC(=O)[C@H]([C@@H](C)O)NC(=O)[C@H](Cc3ccccc3)NC(=O)[C@H](C)NC(=O)[C@H](C)NC(=O)[C@H](CC(=O)O)NC(=O)[C@H](CC(=O)O)NC1=O)NC(=O)[C@H](CC(C)(C)C)NC(=O)[C@H](CC(=O)O)NC2=O (stereo partly drawn) [I-810, Ac-PL3-Asp-Npg-B5-Asp-Asp-Ala-Ala-Phe-Thr-PyrS2-3Thi-BztA-His-NH2]
- chromatographic logD [1]: 2.17
- IC50 ([2]; read-out: NanoBRET Abs IC50): 18000 nM
- Solubility ([3]; Solubility (uM)): 39 µM (≈ 74.7 µg/mL)
- IC50 [4]: 6 nM

SMILES: CC(=O)N1CCC[C@]12CC=CCCCC1(CCCC=CCCCOC(=O)N3CC[C@@](C(=O)N[C@@H](Cc4cscn4)C(=O)N[C@@H](Cc4csc5ccccc45)C(=O)N[C@@H](CCC(N)=O)C(N)=O)(C3)NC(=O)[C@H](CC(N)=O)NC(=O)[C@H](Cc3ccccc3)NC(=O)[C@H](C)NC(=O)[C@H](C)NC(=O)[C@H](CC(=O)O)NC(=O)[C@H](CC(=O)O)NC1=O)NC(=O)[C@H](CC(C)(C)C)NC(=O)[C@H](CC(=O)O)NC2=O (stereo partly drawn) [I-811, Ac-PL3-Asp-Npg-B5-Asp-Asp-Ala-Ala-Phe-Asn-PyrS2-4Thz-BztA-Gln-NH2]
- chromatographic logD [1]: 1.68
- IC50 ([2]; read-out: NanoBRET Abs IC50): > 20000 nM
- Solubility ([3]; Solubility (uM)): 43 µM (≈ 82.5 µg/mL)
- IC50 [4]: 32 nM

SMILES: CC(=O)N1CCC[C@]12CC=CCCCC1(CCCC=CCCCOC(=O)N3CC[C@@](C(=O)N[C@@H](Cc4ccsc4)C(=O)N[C@@H](Cc4csc5ccccc45)C(=O)N[C@H](Cc4c[nH]cn4)C(N)=O)(C3)NC(=O)[C@H](CC(N)=O)NC(=O)[C@H](Cc3ccccc3)NC(=O)[C@H](C)NC(=O)[C@H](C)NC(=O)[C@H](CC(=O)O)NC(=O)[C@H](CC(=O)O)NC1=O)NC(=O)[C@H](CC(C)(C)C)NC(=O)[C@H](CC(=O)O)NC2=O (stereo partly drawn) [I-813, Ac-PL3-Asp-Npg-B5-Asp-Asp-Ala-Ala-Phe-Asn-PyrS2-3Thi-BztA-dHis-NH2]
- chromatographic logD [1]: 2.17
- IC50 ([2]; read-out: NanoBRET Abs IC50): 20900 nM
- Solubility ([3]; Solubility (uM)): 28 µM (≈ 54 µg/mL)
- IC50 [4]: 7 nM

SMILES: CC(=O)N1CCC[C@]12CC=CCCCC1(CCCC=CCCCOC(=O)N3CC[C@@](C(=O)N[C@@H](Cc4ccsc4)C(=O)N[C@@H](Cc4csc5ccccc45)C(=O)N[C@@H](CC(N)=O)C(N)=O)(C3)NC(=O)[C@H](CC(N)=O)NC(=O)[C@H](Cc3ccccc3)NC(=O)[C@H](C)NC(=O)[C@H](C)NC(=O)[C@H](CC(=O)O)NC(=O)[C@H](CC(=O)O)NC1=O)NC(=O)[C@H](CC(C)(C)C)NC(=O)[C@H](CC(=O)O)NC2=O (stereo partly drawn) [I-816, Ac-PL3-Asp-Npg-B5-Asp-Asp-Ala-Ala-Phe-Asn-PyrS2-3Thi-BztA-Asn-NH2]
- chromatographic logD [1]: 2.05
- IC50 ([2]; read-out: NanoBRET Abs IC50): 13700 nM
- Solubility ([3]; Solubility (uM)): 46 µM (≈ 87.6 µg/mL)
- IC50 [4]: 5 nM

SMILES: CC(=O)N1CCC[C@]12CC=CCCCC1(CCCC=CCCCOC(=O)N3CC[C@@](C(=O)N[C@@H](Cc4ccsc4)C(=O)N[C@@H](Cc4csc5ccccc45)C(=O)N[C@@H](C(N)=O)[C@H](C)O)(C3)NC(=O)[C@H](CC(N)=O)NC(=O)[C@H](Cc3ccccc3)NC(=O)[C@H](C)NC(=O)[C@H](C)NC(=O)[C@H](CC(=O)O)NC(=O)[C@H](CC(=O)O)NC1=O)NC(=O)[C@H](CC(C)(C)C)NC(=O)[C@H](CC(=O)O)NC2=O (stereo partly drawn) [I-817, Ac-PL3-Asp-Npg-B5-Asp-Asp-Ala-Ala-Phe-Asn-PyrS2-3Thi-BztA-dThr-NH2]
- chromatographic logD [1]: 2.23
- inhibition at 10 µM [2]: 45%
- IC50 ([2]; read-out: NanoBRET IC50): 6800 nM
- Solubility ([3]; Solubility (uM)): 47 µM (≈ 88.9 µg/mL)
- IC50 [4]: 10 nM

SMILES: CC(=O)N1CCC[C@]12CC=CCCCC1(CCCC=CCCCOC(=O)N3CC[C@@](C(=O)N[C@@H](Cc4ccsc4)C(=O)N[C@@H](Cc4csc5ccccc45)C(=O)N[C@H](CC(N)=O)C(N)=O)(C3)NC(=O)[C@H](CC(N)=O)NC(=O)[C@H](Cc3ccccc3)NC(=O)[C@H](C)NC(=O)[C@H](C)NC(=O)[C@H](CC(=O)O)NC(=O)[C@H](CC(=O)O)NC1=O)NC(=O)[C@H](CC(C)(C)C)NC(=O)[C@H](CC(=O)O)NC2=O (stereo partly drawn) [I-818, Ac-PL3-Asp-Npg-B5-Asp-Asp-Ala-Ala-Phe-Asn-PyrS2-3Thi-BztA-dAsn-NH2]
- chromatographic logD [1]: 2.12
- inhibition at 10 µM [2]: 31.4%
- IC50 ([2]; read-out: NanoBRET Abs IC50): 15000 nM
- Solubility ([3]; Solubility (uM)): 48 µM (≈ 91.4 µg/mL)
- IC50 [4]: 6 nM

SMILES: CC(=O)N1CCC[C@]12CC=CCCCC1(CCCC=CCCCOC(=O)N3CC[C@@](C(=O)N[C@@H](Cc4ccsc4)C(=O)N[C@@H](Cc4csc5ccccc45)C(=O)N[C@@H](CCC(N)=O)C(=O)N[C@@H](C)C(N)=O)(C3)NC(=O)[C@H](CC(N)=O)NC(=O)[C@H](Cc3ccccc3)NC(=O)[C@H](C)NC(=O)[C@H](C)NC(=O)[C@H](CC(=O)O)NC(=O)[C@H](CC(=O)O)NC1=O)NC(=O)[C@H](CC(C)(C)C)NC(=O)[C@H](CC(=O)O)NC2=O (stereo partly drawn) [I-819, Ac-PL3-Asp-Npg-B5-Asp-Asp-Ala-Ala-Phe-Asn-PyrS2-3Thi-BztA-Gln-Ala-NH2]
- chromatographic logD [1]: 2.03
- inhibition at 10 µM [2]: 37.8%
- IC50 ([2]; read-out: NanoBRET Abs IC50): 7500 nM
- Solubility [3]: 50 µM (≈ 99.5 µg/mL)
- IC50 [4]: 5 nM

SMILES: CC(=O)N1CCC[C@]12CC=CCCCC1(CCCC=CCCCOC(=O)N3CC[C@@](C(=O)N[C@@H](Cc4ccsc4)C(=O)N[C@@H](Cc4csc5ccccc45)C(=O)N[C@@H](Cc4c[nH]cn4)C(=O)N[C@@H](C)C(N)=O)(C3)NC(=O)[C@H](CC(N)=O)NC(=O)[C@H](Cc3ccccc3)NC(=O)[C@H](C)NC(=O)[C@H](C)NC(=O)[C@H](CC(=O)O)NC(=O)[C@H](CC(=O)O)NC1=O)NC(=O)[C@H](CC(C)(C)C)NC(=O)[C@H](CC(=O)O)NC2=O (stereo partly drawn) [I-820, Ac-PL3-Asp-Npg-B5-Asp-Asp-Ala-Ala-Phe-Asn-PyrS2-3Thi-BztA-His-Ala-NH2]
- chromatographic logD [1]: 2.1
- inhibition at 10 µM [2]: 30.8%
- IC50 ([2]; read-out: NanoBRET Abs IC50): 18200 nM
- Solubility ([3]; Solubility (uM)): 38 µM (≈ 75.9 µg/mL)
- IC50 [4]: 6 nM
